Read-outs that look alike come from different tables or passages of the source.
Assays:
[1] = literature value; cited from earlier work
[2] = test system: epileptic activity; set-up: method as in PMID 25319542; conditions: cited from earlier work
[3] = Lipophilicity (log P)
[4] = biological target: T1, Kv7.2/Kv7.3 channels (Homo sapiens, UniProt O43525+O43526); assay: FluxOR thallium-sensitive fluorescence-based assay in CHO cells stably expressing Kv7.2 + Kv7.3; format: cell-based; set-up: expressed in transfected cells
Description: While assay robustness in Kv7.2/Kv7.3-expressing cells was high (Z′ factor > 0.5),[27] the Z′ factor calculated in CHO cells expressing Kv7.2 subunits alone was <0.5; thus, all subsequent pharmacological screens were performed in Kv7.2/Kv7.3-expressing cells. […] The Kv7.2/Kv7.3-stable cell line was generated using a plasmid-based PiggyBac transposon system that enables genomic integration of multiple independent transposons containing distinct cDNA sequences. cDNAs for KCNQ2 and KCNQ3 genes (encoding for Kv7.2 and Kv7.3, respectively) were cloned into two different PiggyBac expression vectors (pB-CMV-MCS-EF1α-RedPuro, System Biosciences), and these two plasmids, together with a plasmid encoding for the transposase (System Biosciences), were transfected into CHO cells using Lipofectamine 2000 (Invitrogen) as indicated in the protocol provided by the seller company.
The selected clone stably expressing Kv7.2/Kv7.3 channels was grown in DMEM supplemented with 10% FBS, 50 U/mL Pen-Strep, 2 mM L-glutamine (all purchased from Gibco), and 4 μg/mL puromycin (Sigma) in a humidified atmosphere at 37 °C with 5% CO2. […] A kinetic dispense microplate reader (FLUOstar Optima) was used to read the plate, setting the excitation filter at 485 nm and the emission filter at 520 nm; “Stimulus buffer” prepared as indicated in the protocol was automatically added to wells after 5 s of recording; the plate was read every 1 s, for 50 s. The results were analyzed using Optima Data Analysis and Microsoft Excel.
Only experiments resulting in a Z′ > 0.5 were considered. Data shown (Figures 1D,E,F,G and 3B) were obtained from at least three independent experiments.
Data were analyzed using the GraphPad Prism 8.0.2 (GraphPad Software, LaJolla, CA). Statistically significant differences in the initial slope of the curves were evaluated through ordinary one-way ANOVA, and multiple comparisons were corrected with the Tukey test. […] Indicated EC50 values are the mean of at least three independent experiments ± standard error of the mean (SEM).

[5] = biological target: T1, Kv7.2/Kv7.3 channels; set-up: expressed in transfected cells; conditions: cited from earlier work
[6] = biological target: T1, Kv7.2/Kv7.3 channels; assay: Whole-cell patch-clamp electrophysiology in CHO cells expressing Kv7.2/Kv7.3; format: cell-based; set-up: expressed in transfected cells; host or cells: CHO cells, transient transfection (pcDNA3.1, Lipofectamine 2000); conditions: for EC50: dose-response 0.01–30 μM
Description: Channel subunits were expressed in Chinese hamster ovary (CHO) cells by transient transfection, using plasmids containing cDNAs encoding human Kv7.2 and/or Kv7.3, all cloned in the pcDNA3.1 vector. According to the experimental protocol, these plasmids were expressed individually or in combination, together with a plasmid-expressing enhanced green fluorescent protein (Clontech, Palo Alto, CA) used as a transfection marker. Total cDNA in the transfection mixture was kept at 4 μg. CHO cells were grown in 100 mm plastic Petri dishes in Dulbecco’s modified Eagle’s medium containing 10% fetal bovine serum, nonessential amino acids (0.1 mM), penicillin (50 U/mL), and streptomycin ([…]) in a humidified atmosphere at 37 °C with 5% CO2.
Currents from CHO cells were recorded at room temperature (20–22 °C) using the whole-cell configuration of the patch-clamp technique, with glass micropipettes of 3–5 MΩ resistance. During the recording, constant perfusion of extracellular solution was maintained. […] The pipette (intracellular) solution contained (in mM): 140 KCl, 2 MgCl2, 10 EGTA, 10 HEPES, 5 Mg^2+-ATP, at pH 7.3–7.4, with KOH. […] To evaluate the activity of each compound on Kv7.2 + Kv7.3 currents, the cells were clamped at −80 mV and conductance–voltage curves (G/V curves; activation curves) were generated by normalizing to the maximal value of the instantaneous isopotential currents at 0 mV and expressing the normalized values as a function of the preceding voltages. Data were fit to a Boltzmann distribution of the following form: y = max/[1 + exp (V1/2 – V)/k], where V is the test potential, V1/2 is the half-activation potential, and k is the slope factor.
Indicated EC50 values are the mean of at least three independent experiments ± standard error of the mean (SEM).
Statistically significant differences in electrophysiological data were evaluated with the Student t test or with ANOVA followed by the Student–Newman–Keuls test when multiple groups were compared, with the threshold set at p < 0.05. […] Values are expressed as the […] mean ± standard error of the mean (SEM) of at least three cells recorded in at least three independent transfections.

[7] = biological target: Kv7.2/Kv7.3 currents (Homo sapiens, UniProt O43525+O43526); conditions: 3 mM TEA
Description: To ensure that both Kv7.2 and Kv7.3 subunits were expressed into the selected clone and formed heteromeric channels, pharmacological experiments with the Kv7 channel blocker tetraethylammonium (TEA) were performed.[64] […] The effect of TEA blockade on Kv7.2/Kv7.3 currents on the selected clone was compared to that of the blockade exerted on the control group, represented by CHO cells transiently transfected with Kv7.2/Kv7.3 channels. The effect of the TEA blockade was investigated using a ramp protocol in which Kv7.2/Kv7.3 currents were activated by 3 s voltage ramps from −80 to +20 mV.

[8] = test system: Kv7.2; conditions: TEA blockade of Kv7.2; cited from earlier work
[9] = test system: Kv7.2/Kv7.3 channel; conditions: TEA blockade of heteromeric Kv7.2/Kv7.3; cited from earlier work

Kv7.2/Kv7.3 currents, sequence (O43526 whole entry): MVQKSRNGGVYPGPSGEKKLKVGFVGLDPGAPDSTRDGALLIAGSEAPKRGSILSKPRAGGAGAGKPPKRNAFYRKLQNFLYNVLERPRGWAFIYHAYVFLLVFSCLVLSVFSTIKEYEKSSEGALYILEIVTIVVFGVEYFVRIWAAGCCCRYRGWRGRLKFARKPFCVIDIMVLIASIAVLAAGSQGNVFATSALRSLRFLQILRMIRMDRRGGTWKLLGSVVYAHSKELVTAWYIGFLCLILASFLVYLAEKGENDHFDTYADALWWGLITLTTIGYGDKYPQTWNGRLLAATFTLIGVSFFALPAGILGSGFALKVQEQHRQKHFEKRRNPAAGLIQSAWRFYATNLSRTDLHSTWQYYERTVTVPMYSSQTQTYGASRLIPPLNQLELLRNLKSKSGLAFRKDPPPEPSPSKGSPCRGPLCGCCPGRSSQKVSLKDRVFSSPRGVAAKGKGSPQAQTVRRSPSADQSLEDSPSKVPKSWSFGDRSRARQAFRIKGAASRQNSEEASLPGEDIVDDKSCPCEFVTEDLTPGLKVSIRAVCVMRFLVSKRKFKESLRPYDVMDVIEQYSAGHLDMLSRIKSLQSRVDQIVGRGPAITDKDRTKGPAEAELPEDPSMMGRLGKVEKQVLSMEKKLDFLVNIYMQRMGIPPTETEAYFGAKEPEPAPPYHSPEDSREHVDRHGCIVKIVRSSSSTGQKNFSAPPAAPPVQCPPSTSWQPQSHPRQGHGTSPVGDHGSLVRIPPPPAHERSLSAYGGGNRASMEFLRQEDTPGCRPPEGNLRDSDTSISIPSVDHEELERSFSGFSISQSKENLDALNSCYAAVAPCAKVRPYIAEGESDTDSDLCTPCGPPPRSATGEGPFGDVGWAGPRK
Kv7.2/Kv7.3 currents, sequence (O43525 whole entry): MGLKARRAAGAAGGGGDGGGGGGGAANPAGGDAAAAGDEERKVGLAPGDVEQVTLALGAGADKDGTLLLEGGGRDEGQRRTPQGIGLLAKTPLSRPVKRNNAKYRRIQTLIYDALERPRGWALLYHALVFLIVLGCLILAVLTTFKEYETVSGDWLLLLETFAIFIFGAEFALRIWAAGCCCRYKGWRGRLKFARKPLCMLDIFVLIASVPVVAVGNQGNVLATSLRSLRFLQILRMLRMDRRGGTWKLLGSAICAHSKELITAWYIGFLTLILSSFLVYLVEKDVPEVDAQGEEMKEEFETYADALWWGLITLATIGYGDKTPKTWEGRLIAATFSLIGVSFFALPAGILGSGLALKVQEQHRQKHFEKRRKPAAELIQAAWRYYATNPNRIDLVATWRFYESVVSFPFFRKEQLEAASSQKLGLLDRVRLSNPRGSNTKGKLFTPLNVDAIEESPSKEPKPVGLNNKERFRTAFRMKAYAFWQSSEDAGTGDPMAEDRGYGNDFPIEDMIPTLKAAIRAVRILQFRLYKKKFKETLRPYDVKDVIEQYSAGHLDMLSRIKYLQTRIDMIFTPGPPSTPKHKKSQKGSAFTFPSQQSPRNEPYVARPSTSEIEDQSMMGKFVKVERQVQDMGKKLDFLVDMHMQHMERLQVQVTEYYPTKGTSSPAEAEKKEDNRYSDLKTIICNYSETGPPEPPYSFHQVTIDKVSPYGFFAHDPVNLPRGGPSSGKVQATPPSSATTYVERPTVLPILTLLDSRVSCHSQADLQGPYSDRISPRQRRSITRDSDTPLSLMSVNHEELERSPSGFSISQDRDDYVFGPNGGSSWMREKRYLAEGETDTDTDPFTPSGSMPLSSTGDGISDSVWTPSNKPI

Question: Which results are given for `C#CCN(Cc1ccc(F)cc1)c1ccc(NC(=O)OCC)c(N)c1` [P-RET, N-propargyl retigabine]?
Answer: Increase in brain/plasma ratio compared to retigabine [1]: 14 fold; In vivo potency higher than retigabine (suppression of epileptic activity) [2]: 2.5 times; logP [3]: 3.48

Question: Which results are given for `CCOC(=O)Nc1ccc(NCc2ccc(C(F)(F)F)cc2)c(F)c1N` [RL-81]?
Answer: Slope of the fluorescent signal at 10 μM ([4]; 10 μM, initial slope of FluxOR signal between 5 and 15 s, mean ± SEM): 0.0272±0.0014; EC50 ([4]; FluxOR dose-response, slope parameter, read-out: EC50 (initial slope of the fluorescence signal)): 4 ± 1 µM; Potency relative to retigabine as a Kv7 activator in vitro [5]: > 15 times; Leftward shift in V1/2 (ΔV1/2) ([6]; 1 μM): about 40 mV; Idrug/Icontrol (maximal current density) ([6]; calculated at +20 mV): 1.6 ± 0.2; EC50 ([6]; current at +20 mV, read-out: Maximal currents EC50): 0.27 ± 0.04 µM; EC50 ([6]; read-out: ΔV1/2 EC50): 0.24 ± 0.06 µM; Potency over retigabine as Kv7.2/Kv7.3 activator (fold/times) ([6]; from ΔV1/2 EC50): 10

Question: With `CC[N+](CC)(CC)CC` [TEA, tetraethylammonium] as the compound, how does the Current inhibition ([7]; CHO cells transiently transfected with Kv7.2/Kv7.3 (control group)) read?
Answer: The Current inhibition was “about 55%”.

Question: What about the Current inhibition ([7]; selected stable clone (clone 5)) of the same compound?
Answer: Its Current inhibition is “about 35%”.

Question: And the IC50 [8]?
Answer: The IC50 was 300 µM.

Question: And the IC50 [9]?
Answer: The IC50 was 3000 µM.
